From PMC10198977, “Computational design of dynamic receptor—peptide signaling complexes applied to chemotaxis” (Nature Communications, 2023)
One block for each compound: values may come before it. Residues, ends and D or L forms follow the SMILES beside them. No end group written: not given here.

Assays:
Format in all cases: cell-based
[1] = molecular target: Cdyn (Homo sapiens, UniProt P61073, L41A/H113N/S178A); experiment: Gαi BRET of peptides on Cdyn; parameters: Gi BRET (dEC50): unit not given here; conditions: Cdyn receptor; for Gi BRET (dEC50): vs WT:WT
Method: (§1) Lyophilized peptides were stored at −80 °C and resuspended in assay buffer on the day of the experiment.
(§2) 40,000 HEK 293T cells were transiently transfected with WT or variant HA3-CXCR4, Gαi1−91-Rluc8, Gβ3-WT, and Gγ9-GFP2 in pcDNA3.1(+) at a ratio of 10:1:10:5 respectively. Cells were first seeded in 100 µL DMEM 10% FBS in a poly-lysine coated, white-walled, white-bottom 96-well plate. Directly after cell loading, 50 µL of the mixture containing Lipofectamine 2000 and the DNA was added on top of the cells. The cells were then left to incubate at 37 °C, 5% CO2, and 95% relative humidity for 20 h, after which, 150 µL media was refreshed. Cells were assayed 48 h post-transfection. Cells were washed with 150 µL PBS, then 40 µL BRET buffer (HBSS, 0.2% Glucose) was added to each well. Coelenterazine 400a was first added at a final concentration of 2.5 µM and BRET ratios were measured once using Mithras[2] LB 943 plate reader. After the first measurement, 40 µL of a 3x concentrated agonist solution was added to each well, and BRET ratios were measured for another 30 min using a Mithras[2] LB 943 plate reader. Mock-transfected controls were subtracted from the data. Maximum values averaged from 3 replicates were then plotted against selected concentrations and fitted to a sigmoidal curve using GraphPad Prism v9.

[2] = molecular target: Csedy (Homo sapiens, UniProt P61073); experiment: Gαi BRET of peptides on Csedy; conditions: Csedy receptor; for Gi BRET (dEC50): vs WT:WT
Method: as §1, §2

[3] = test system: Gαi activation; experiment: Gαi dissociation BRET of designed receptors with WT CXCL12(1-17) peptide; parameters: Gαi BRET response: scale not given here; conditions: HEK 293T
Method: as §1, §2

Cdyn, sequence (P61073 whole entry L41A/H113N/S178A): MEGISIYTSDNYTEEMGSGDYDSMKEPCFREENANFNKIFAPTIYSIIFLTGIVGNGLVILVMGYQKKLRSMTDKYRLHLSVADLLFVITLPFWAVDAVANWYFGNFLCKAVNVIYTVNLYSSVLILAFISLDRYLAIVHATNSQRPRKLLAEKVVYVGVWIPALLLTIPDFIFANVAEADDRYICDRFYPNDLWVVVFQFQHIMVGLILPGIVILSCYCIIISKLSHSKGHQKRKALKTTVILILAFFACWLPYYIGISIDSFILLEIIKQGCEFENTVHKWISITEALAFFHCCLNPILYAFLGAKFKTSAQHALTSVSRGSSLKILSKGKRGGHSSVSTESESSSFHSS
Csedy, sequence (P61073 whole entry): as the sequence (P61073 whole entry L41A/H113N/S178A) above, with A41L, N113H, A178S counted along it

enhanced potency ([1]; vs WT receptor–peptide pair): more than 80 -fold
Gi BRET (dEC50) ([1]; replicate 1): -2.1375
Gi BRET (dEC50) ([1]; replicate 2): -1.6575
Gi BRET (dEC50) ([1]; replicate 3): -1.8525
Gi BRET (dEC50) ([1]; replicate 4): -1.6695
Gi BRET (dEC50) ([1]; replicate 5): -1.8605
Compound: CC(C)C[C@H](NC(=O)[C@H](CO)NC(=O)[C@H](Cc1ccc(O)cc1)NC(=O)[C@@H]1CCCN1C(=O)[C@@H](N)CCCCN)C(=O)N[C@@H](CO)C(=O)N[C@@H](Cc1ccc(O)cc1)C(=O)N[C@@H](CCCNC(=N)N)C(=O)N[C@@H](CS)C(=O)N1CCC[C@H]1C(=O)N[C@@H](CS)C(=O)N[C@@H](CCCNC(=N)N)C(=O)N[C@@H](Cc1ccccc1)C(=O)N[C@@H](Cc1ccccc1)C(=O)N[C@@H](CCC(=O)O)C(=O)N[C@@H](CO)C(=O)N[C@@H](Cc1c[nH]cn1)C(N)=O [V3Y] (H-KPYSLSYRCPCRFFESH-NH2; N-terminus assumed)

Efficacy, Gi ([2]; mean): 135.5 %WT-WT
Gi BRET (dEC50) ([2]; replicate 1): -1.6525
Gi BRET (dEC50) ([2]; replicate 2): -2.5125
Gi BRET (dEC50) ([2]; replicate 3): -1.456
Compound: V3W-Y7L: CXCL12(1-17) peptide variant V3W-Y7L (KPWSLSLRCPCRFFESH-NH2; cysteine pairing not given here; UniProt P48061 22-38, looked up, variant V3W Y7L)

Efficacy, Gi ([1]; mean): 130.6 %WT-WT
Gi BRET (dEC50) ([1]; replicate 1): -1.8535
Gi BRET (dEC50) ([1]; replicate 2): -2.0125
Gi BRET (dEC50) ([1]; replicate 3): -2.163
Compound: V3W: CXCL12(1-17) peptide variant V3W (KPWSLSYRCPCRFFESH-NH2; cysteine pairing not given here; UniProt P48061 22-38, looked up, variant V3W)

Gαi BRET response ([3]; log[WT CXCL12(1-17)] -4.17653, replicate 1): 84.4534
Gαi BRET response ([3]; log[WT CXCL12(1-17)] -4.17653, replicate 2): 83.4696
Gαi BRET response ([3]; log[WT CXCL12(1-17)] -4.65365, replicate 1): 62.5022
Gαi BRET response ([3]; log[WT CXCL12(1-17)] -4.65365, replicate 2): 62.6195
Gαi BRET response ([3]; log[WT CXCL12(1-17)] -5.13077, replicate 1): 35.993
Gαi BRET response ([3]; log[WT CXCL12(1-17)] -5.13077, replicate 2): 39.2443
Gαi BRET response ([3]; log[WT CXCL12(1-17)] -5.60789, replicate 1): 12.5404
Gαi BRET response ([3]; log[WT CXCL12(1-17)] -5.60789, replicate 2): 16.9401
Gαi BRET response ([3]; log[WT CXCL12(1-17)] -6.08501, replicate 1): 10.2917
Gαi BRET response ([3]; log[WT CXCL12(1-17)] -6.08501, replicate 2): 3.156
Gαi BRET response ([3]; log[WT CXCL12(1-17)] -8, replicate 1): -1.029
Gαi BRET response ([3]; log[WT CXCL12(1-17)] -8, replicate 2): 1.036
Compound: WT CXCR4: WT CXCR4 with an N-terminal 3xHA-tag
